In patent US6040338A, “N,n-bis(sulfonyl)hydrazines useful as antineoplastic agents” (Yale University, priority 1997, dated 2000):

Assays:
host animals = conditions: in vivo; cited from earlier work
tumor = conditions: in vivo; cited from earlier work
L1210 leukemia [1] = conditions: single intraperitoneal dose; cited from earlier work
[2] = Initial rate of hydrolysis in aqueous media at pH 7.4 and 37° C.; assay type: physicochemical
Description: For example, the initial rates of hydrolysis of 2-acetyl-1,2-bis(methylsulfonyl)-1-methylhydrazine (an acyl derivative shown in structural formula 5) and 1,2-bis(methylsulfonyl)-2-methoxycarbonyl-1-methylhydrazine (a carbamate compound shown in structural formula 6) were 0.3% and 0.007% per minute, respectively, at pH 7.4 and 37° C. [drawing 12]

proteinase K or serum = experiment: Effect of proteinase K or serum on rate of decomposition/activation; assay type: in vitro ADME
GSH/GST = experiment: Relative rate of activation by GSH/GST in vitro; assay type: in vitro ADME; conditions: 1 mM compound, GSH 1 mM, GST 400 μg/ml; compound 6 = 100
Description: When R^3 is a methyl group, the rate of activation by GSH/GST is highly dependent upon the nature of the 2-alkoxy- or 2-aryloxycarbonyl moiety at the R^4 position.
The rate of activation of 2-(2-bromoethoxy)carbonyl-1,2-bis(methylsulfonyl)-1-methylhydrazine (compound 8) was elevated approximately 18-fold in vitro by the presence of GSH (1 mM) and GST (400 μg/ml), compared to buffer alone.

[3] = test system: CHO-K1/dhfr^- cells transfected with DT-diaphorase cDNA; experiment: Colony-forming assay, CHO-K1/dhfr^- cells overexpressing DT-diaphorase; assay type: cell-based, Chinese hamster; conditions: 133-fold overexpression versus parental; FIG. 4
Description: (§1) The ability of compounds 10h, 11, 12, and 14 to exert preferential toxicity to hypoxic cells was evaluated using the EMT6 mammary carcinoma by methodology described previously (Rockwell, S., Keyes, S. R., and Sartorelli, A. C. Rad. Res. 116: 100-113 (1988); Keyes, S. R., Rockwell, S., and Sartorelli, A. C. Cancer Res. 45: 213-216 (1985)). Briefly, exponentially growing monolayers of EMT6 (or CHO-K1/dhfr clone) were exposed to a continuously flowing 95% N2 /5% CO2 humidified atmosphere for 2 h to produce radiobiologic hypoxia. Parallel flasks were maintained similarly in humidified 95% air/5% CO2. Without breaking the hypoxia, cells were exposed to various concentrations of the test agent for 1 hr. Cell survival was then measured by colony formation.
CHO-K1/dhfr cells were used to examine the role of the reductive enzymes NADPH:cytochrome P450 reductase and DT-diaphorase in the activation of compounds 10h and 12 in situ. […]
(§2) The cytotoxicity of compound loh was evaluated in aerobic and hypoxic Chinese hamster ovary (CHO-K1/dhfr^-) cells transfected with and overexpressing cDNAs for NADPH:cytochrome P450 reductase (27-fold more than parental cells, FIG. 3) or DT-diaphorase (133-fold more than parental cells, FIG. 4), two reductases with the potential to activate compound 10h. […]

[4] = Activation by hydrolysis in phosphate buffer; assay type: physicochemical
Description: (§3) The rates of activation of compounds 10a-h were measured in 1 mM phosphate buffer (pH 7.4, 37° C.) alone, 1 mM phosphate buffer containing 5 mM GSH (pH 7.4, 37° C.), and in 1 mM phosphate buffer containing 5 mM GSH and 17.5 U/ml of GST (pH 7.4, 37° C.) (Table 3).

CHO-K1/dhfr^- cells = experiment: Colony-forming assay, aerobic and hypoxic CHO-K1/dhfr^- cells; assay type: cell-based, Chinese hamster
Description: as §1
CHO-K1/dhfr cells were used to examine the role of the reductive enzymes NADPH:cytochrome P450 reductase and DT-diaphorase in the activation of compounds 10h and 12 in situ. Clones of CHO-K1/dhfr^- cells transfected with and overexpressing cDNAs for each of these enzymes were used for this purpose (Belcourt, M. F., Hodnick, W. F., Rockwell, S., and Sartorelli, A. C. Proc. Natl. Acad. Sci. USA 93: 456-460 (1996); Belcourt, M. F., Hodnick, W. F., Rockwell, S., and Sartorelli, A. C. Biochem. Pharmacol. 51: 1669-1678 (1996)).
The cytotoxicity of compound loh was evaluated in aerobic and hypoxic Chinese hamster ovary (CHO-K1/dhfr^-) cells transfected with and overexpressing cDNAs for NADPH:cytochrome P450 reductase (27-fold more than parental cells, FIG. 3) or DT-diaphorase (133-fold more than parental cells, FIG. 4), two reductases with the potential to activate compound 10h. In FIGS. 3 and 4, points are means of duplicate determinations. […]
(§4) Compound 12 was evaluated for its ability to exert preferential toxicity to hypoxic EMT6 cells relative to their aerobic counterparts. […]

[5] = test system: EMT6 mammary carcinoma cells; experiment: Colony-forming assay, EMT6 cells under hypoxic or aerobic conditions; assay type: cell-based, mouse; conditions: 1 hr exposure
Description: as §1
The cytotoxicity of compound 10h was evaluated against EMT6 mouse mammary carcinoma cells in vitro under aerobic and hypoxic conditions using the colony-forming assay described above. FIG. 1 depicts the survival of EMT6 cells exposed to various concentrations of compound 10h for 1 hr under hypoxic or aerobic conditions in vitro. Points are the geometric means of two or more independent determinations of surviving fractions. The SEMs are shown where n≥3 and where the error is larger than the point size. Open triangles represent aerobic data points and filled triangles represent hypoxic data points.
Compound 12 was evaluated for its ability to exert preferential toxicity to hypoxic EMT6 cells relative to their aerobic counterparts. […] Points are geometric means of two or more independent determinations of surviving fractions. The SEMs are shown where n≥3 and where the error is larger than the point size. Open triangles are aerobic data points, and filled triangles are hypoxic data points. […] Points are means of duplicate determinations. Open triangles are parental-aerobic; filled triangles are parental-hypoxic; open circles are NADPH:cytochrome P450 reductase-transfected-aerobic; filled circles are NADPH:cytochrome P450 reductase-transfected-hypoxic.

[6] = test system: CHO-K1/dhfr^- cells transfected with NADPH:cytochrome P450 reductase cDNA; experiment: Colony-forming assay, CHO-K1/dhfr^- cells overexpressing NADPH:cytochrome P450 reductase; assay type: cell-based, Chinese hamster
Description: as §1, with “formation. […]” for “formation.”
as §2, §4

L1210 leukemia [7] = experiment: Survival time and body weight of mice bearing the L1210 leukemia; assay type: in vivo, mice (CD2 F1); conditions: Table 4; i.p. once daily for 6 days at optimum daily dose (10a 60, 10b 25, 10c 12.5, 10d-h 30 mg/kg)
Description: The ascites cell form of leukemia L1210 was obtained from the Frederick Cancer Research Facility, Division of Cancer Treatment Tumor Repository of the National Cancer Institute, and was maintained by serial passage in tissue culture. Every 8 weeks, tumor cells were injected intraperitoneally into 5 donor CD2 F1 mice 8-10 weeks of age and were allowed to grow for 7 days. The peritoneal fluid was withdrawn, and the suspension was centrifuged for 5 min at 1600×g. The supernatant was decanted, and 10^5 cells/ml were seeded into 10 ml of RPMI 1640 medium supplemented with 10% fetal bovine serum and 1% L-glutamine (200 mM) and once again maintained in culture. To assay for antitumor activity, 0.1 ml of the cell suspension containing 10^5 leukemia cells was injected into each recipient mouse. […] Each drug was administered intraperitoneally as a solution in 100% dimethyl sulfoxide, in a volume not exceeding 25 μl. […] Mice were weighed during the course of the experiments, and the percentage change in body weight from onset to termination of therapy was used as an indication of drug toxicity. Determination of the sensitivity of neoplasms to these agents was based upon the prolongation of survival time afforded by the drug treatments.
The antitumor activity of compounds 10a-h and 16 were assessed in mice bearing the L1210 leukemia. The results of these tests are summarized in Tables 4 and 5 which show the effects of 2-alkoxycarbonyl- and 2-aryloxycarbonyl-1,2-bis(methylsulfonyl)-1-(2-chloroethyl)hydrazines on the survival time of mice bearing the L1210 leukemia.
In Table 4, the optimum daily dose was administered once per day for six consecutive days, beginning 24 hours after tumor implantation, with 5-10 mice being used per group. In Table 5, multiple dosages of compound 16 are indicated. "Av Δ wt" refers to the average percent change in body weight from onset to termination of therapy. "% T/C" refers to the average survival time of treated/control mice×100. Cures (60-day survivors) are listed separately and are not included in this calculation.

GST = experiment: Activation by GST-catalyzed thiolysis; assay type: in vitro ADME
Description: as §3

[8] = Activation by thiolysis (GSH); assay type: in vitro ADME
Description: as §3

CS(=O)(=O)NN(CCCl)S(C)(=O)=O [Compound 2, 1,2-bis(methylsulfonyl)-1-(2-chloroethyl)hydrazine]
host toxicity (in words) (host animals): considerable host toxicity | active dosage range (in words) (tumor): active only over a narrow dosage range | antitumor/antineoplastic activity (in words) (tumor): most active compound of this class | cures of mice bearing the L1210 leukemia (L1210 leukemia [1]): 40%

CS(=O)(=O)N(CCCl)N(C(=O)NCCCl)S(C)(=O)=O [Compound 3]
host toxicity (in words) (host animals): considerably less toxic to host animals than compound 2 | antitumor/antineoplastic activity (in words) (tumor): broad-spectrum antitumor activity

CC(=O)N(N(CCCl)S(C)(=O)=O)S(C)(=O)=O [Compound 4]
host toxicity (in words) (host animals): considerably less toxic to host animals than compound 2 | antitumor/antineoplastic activity (in words) (tumor): broad-spectrum antitumor activity

CC(=O)N(N(C)S(C)(=O)=O)S(C)(=O)=O [Compound 5, 2-acetyl-1,2-bis(methylsulfonyl)-1-methylhydrazine, reference compound]
initial rate of hydrolysis [2]: 0.3 % per minute | enhancement of rate of activation by proteinase K or serum (proteinase K or serum; levels of proteinase K or serum): ~10 fold

COC(=O)N(N(C)S(C)(=O)=O)S(C)(=O)=O [Compound 6, 1,2-Bis(methylsulfonyl)-2-(methoxycarbonyl)-1-methylhydrazine]
initial rate of hydrolysis [2]: 0.007 % per minute | increase of rate of decomposition by proteinase K or serum (proteinase K or serum; levels that enhanced activation of compound 5 almost 10-fold): not appreciably increased | Relative Activation Rate by GSH/GST (GSH/GST): 100

COc1ccc(OC(=O)N(N(C)S(C)(=O)=O)S(C)(=O)=O)cc1 [Compound 9, 1,2-Bis(methylsulfonyl)-2-[(4-methoxyphenoxy)carbonyl]-1-methylhydrazine]
Relative Activation Rate by GSH/GST (GSH/GST): 1,700

CS(=O)(=O)N(CCCl)N(C(=O)OCc1ccc([N+](=O)[O-])cc1)S(C)(=O)=O [Compound 10h, 1,2-Bis(methylsulfonyl)-1-(2-chloroethyl)-2-[(4-nitrobenzyloxy)carbonyl]hydrazine]
kill of hypoxic or oxygenated cells on overexpression of DT-diaphorase (in words) [3]: did not result in an increase in the kill of either hypoxic or oxygenated cells | Calculated Activation Rate due to Hydrolysis ([4]; 1 mM phosphate buffer, pH 7.4, 37° C.): not detected | hydrolysis in phosphate buffer (in words) ([4]; phosphate buffer, physiological pH): little or no hydrolysis | sensitivity of CHO-K1/dhfr^- cells compared with EMT6 cells (in words) (CHO-K1/dhfr^- cells; FIGS. 3 and 4): less sensitive | sensitivity of hypoxic CHO-K1/dhfr^- cells compared with aerobic counterparts (in words) (CHO-K1/dhfr^- cells; hypoxic versus aerobic, FIGS. 3 and 4): more sensitive | toxicity to aerobic EMT6 cells (in words) ([5]; 40 μM, aerobic (FIG. 1)): relatively minor toxicity | log reduction at 40 µM ([5]; Mus musculus, EMT6, 40 μM, hypoxic (FIG. 1), read-out: kill of hypoxic EMT6 cells): 2 | sensitivity of cells overexpressing NADPH:cytochrome P450 reductase (in words) ([6]; 27-fold overexpression versus parental, FIG. 3): Increased sensitivity | Av Δ wt (average percent change in body weight from onset to termination of therapy) (L1210 leukemia [7]): -8.6% | Calculated Activation Rate due to Catalyzed Thiolysis (5 mM GSH + 17.5 U/ml GST) (GST; 1 mM phosphate buffer, 5 mM GSH, 17.5 U/ml GST, pH 7.4, 37° C.): 20.5 nmol/mL/min | rate of activation when thiolysis is catalyzed by GST (in words) (GST; GSH + GST): relatively high rate of activation | Calculated Activation Rate due to Thiolysis (5 mM GSH) ([8]; 1 mM phosphate buffer, 5 mM GSH, pH 7.4, 37° C.): 0.06 nmol/mL/min | rate of thiolysis with GSH (in words) ([8]; reacted with GSH): extremely slow rate of thiolysis

COc1cc(COC(=O)N(N(CCCl)S(C)(=O)=O)S(C)(=O)=O)c([N+](=O)[O-])cc1OC [Compound 12, 1,2-Bis(methylsulfonyl)-1-(2-chloroethyl)-2-[(4,5-dimethoxy-2-nitrobenzyloxy)carbonyl]hydrazine]
cytotoxicity to aerobic and hypoxic CHO-K1/dhfr^- cells (in words) (CHO-K1/dhfr^- cells; 1 hr (FIG. 6)): results similar to those described for compound 10h | toxicity to aerobic EMT6 cells (in words) ([5]; 50 μM, aerobic (FIG. 5)): relatively minor toxicity | log reduction at 50 µM ([5]; Mus musculus, EMT6, 50 μM, hypoxic (FIG. 5), read-out: kill of hypoxic EMT6 cells): > 3 | cytotoxicity to hypoxic versus aerobic cells overexpressing NADPH-cytochrome P450 reductase ([6]; 1 hr, hypoxic versus aerobic (FIG. 6)): > 3000 times
